Source: ChEMBL document CHEMBL5500371, “Arginine and tryptophan-rich dendritic antimicrobial peptides that disrupt membranes for bacterial infection in vivo” (Eur J Med Chem, 2024)
Active and inactive are the calls of the source. The rule behind the calls is not given here. Where a SMILES comes first, the peptide text is derived from it. Side-chain parts run from the residue outwards.

Columns and labels:
[1] = Therapeutic index, ratio of MHC10 for hemolytic activity in mouse erythrocytes preincubated with 10% mouse serum for 6 hrs to MIC for Escherichia coli ATCC 25922 preincubated with 10% mouse serum for 6 hrs; assay type: toxicity, cell-based; details: mouse erythrocytes, read-out: TI
[2] = Therapeutic index, ratio of MHC10 for hemolytic activity in mouse erythrocytes preincubated with 10% mouse serum for 1 hr to MIC for Staphylococcus aureus ATCC 25923 preincubated with 10% mouse serum for 1 hr; assay type: toxicity, cell-based; details: mouse erythrocytes, read-out: TI
[3] = Therapeutic index, ratio of MHC10 for hemolytic activity in mouse erythrocytes preincubated with 10% mouse serum for 6 hrs to MIC for Staphylococcus aureus ATCC 25923 preincubated with 10% mouse serum for 6 hrs; assay type: toxicity, cell-based; details: mouse erythrocytes, read-out: TI
[4] = Hemolytic activity in mouse erythrocytes at 256 uM preincubated for 1 to 6 hr with 10% mouse serum and measured after 1 hr by absorbance based analysis; assay type: toxicity, cell-based, Erythrocyte; details: time 1-7 hrs, read-out: Activity
[5] = system: Staphylococcus aureus; test: Bactericidal activity against Staphylococcus aureus ATCC 25923 assessed as elimination of bacteria at 2 times MIC measured after 1.5 hrs by time kill assay; assay type: functional
[6] = system: Escherichia coli; test: Bactericidal activity against Escherichia coli ATCC 25922 assessed as elimination of bacteria at 2 times MIC measured within 2 hrs by time kill assay; assay type: functional, organism-based
[7] = system: Escherichia coli; test: Antibiofilm activity against Escherichia coli ATCC 25922 assessed as inhibition of biofilm formation at 0.5 to 4 times MIC measured after 24 hrs by crystal violet staining based analysis; assay type: functional, organism-based
[8] = system: Staphylococcus aureus; test: Antibiofilm activity against Staphylococcus aureus ATCC 25923 assessed as inhibition of biofilm formation at 0.5 to 4 times MIC measured after 24 hrs by crystal violet staining based analysis; assay type: functional, organism-based
[9] = system: Lipopolysaccharide (LPS); test: Binding affinity to LPS (unknown origin) assessed as reduction in bacterial mortality at 2 times MIC preincubated with LPS for 1 hr followed by bacteria addition and measured after 18 hrs by microplate reader analysis; assay type: subcellular; details: time 19.0 hrs
[10] = system: Cell membrane; test: Induction of outer membrane permeabilization in Escherichia coli assessed as increase in fluorescence intensity at 0.5 to 4 times MIC measured within 1 min by NPN dye based assay
[11] = system: Cell membrane; test: Induction of outer membrane permeabilization in Escherichia coli assessed as increase in fluorescence intensity at 0.5 to 4 times MIC measured for 12 mins by NPN dye based assay
[12] = system: Cell membrane; test: Induction of inner membrane permeabilization in Escherichia coli ML-35 ATCC 43837 at 0.5 to 4 times MIC by ONPG reagent based microplate reader analysis; details: time 0-135 min, TDE = time-dependent effect
[13] = system: Cell membrane; test: Induction of cell membrane damage in Escherichia coli assessed as PI uptake at 2 times MIC measured after 0.5 hrs by PI dye based flow cytometry analysis (reference value: 18.1%); assay type: cell membranes
[14] = system: Cell membrane; test: Induction of cell membrane damage in Staphylococcus aureus assessed as increase in PI uptake at 2 times MIC measured after 2 hrs by PI dye based flow cytometry analysis; assay type: cell membranes
[15] = system: Cell membrane; test: Disruption of cell membrane morphology in Escherichia coli assessed as partial creasing in bacterial membrane at 2 times MIC measured after 0.5 to 2 hrs by SEM analysis; assay type: cell membranes; details: time 0.5-2 hrs
[16] = system: Cell membrane; test: Disruption of cell membrane morphology in Escherichia coli assessed as breakage of cell membrane at 2 times MIC measured after 0.5 to 2 hrs by SEM analysis; assay type: cell membranes; details: time 0.5-2 hrs
[17] = system: Cell membrane; test: Disruption of cell membrane morphology in Escherichia coli assessed as loss of intact cell morphology at 2 times MIC measured after 0.5 to 2 hrs by SEM analysis; assay type: cell membranes; details: time 0.5-2 hrs
[18] = system: Cell membrane; test: Disruption of cell membrane morphology in Staphylococcus aureus assessed as breakage of cell membrane at 2 times MIC measured after 0.5 to 2 hrs by SEM analysis; assay type: cell membranes; details: time 0.5-2 hrs
[19] = system: Cell membrane; test: Disruption of cell membrane morphology in Staphylococcus aureus assessed as release of cellular contents at 2 times MIC measured after 0.5 to 2 hrs by SEM analysis; assay type: cell membranes; details: time 0.5-2 hrs
[20] = system: Cell membrane; test: Disruption of cell membrane morphology in Staphylococcus aureus assessed as loss of intact cell morphology at 2 times MIC measured after 0.5 to 2 hrs by SEM analysis; assay type: cell membranes; details: time 0.5-2 hrs
[21] = system: Staphylococcus aureus; test: Drug resistance, ratio of MIC for Staphylococcus aureus after 20 passages to MIC for Staphylococcus aureus after initial exposure; assay type: functional
[22] = system: Escherichia coli; test: Resistant development in Escherichia coli assessed as increase in MIC at sub-MIC in presence of gentamicin measured after 20 passages; assay type: functional, organism-based
[23] = system: Staphylococcus aureus; test: Resistant development in Staphylococcus aureus assessed as increase in MIC at sub-MIC in presence of rifampicin measured after 20 passages; assay type: functional, organism-based
[24] = system: Staphylococcus aureus; test: Resistant development in Staphylococcus aureus assessed as increase in MIC at sub-MIC in presence of gentamicin measured after 20 passages; assay type: functional, organism-based
[25] = system: Escherichia coli; test: Synergistic antibacterial activity against Escherichia coli ATCC 25922 assessed as fractional inhibitory concentration index at 0.25 to 4 times MIC incubated for 20 hrs in presence of polymyxin B by checkerboard assay; assay type: functional
[26] = system: Staphylococcus aureus; test: Synergistic antibacterial activity against rifampicin resistant Staphylococcus aureus ATCC 25923 assessed as fractional inhibitory concentration index at 0.25 to 4 times MIC incubated for 20 hrs in presence of rifampicin by checkerboard assay; assay type: functional
[27] = Acute toxicity in male BALB/c mouse assessed as torpid movement at 80 to 130 mg/kg, ip administered as single dose and measured after 3 days; assay type: organism-based; details: in vivo, 72 h, dose 80-130 mg/kg, time 3 day
[28] = Acute toxicity in male BALB/c mouse assessed as loss of appetite at 80 to 130 mg/kg, ip administered as single dose and measured after 3 days; assay type: organism-based; details: in vivo, 72 h, dose 80-130 mg/kg, time 3 day
[29] = Acute toxicity in male BALB/c mouse assessed as lusterless fur at 80 to 130 mg/kg, ip administered as single dose and measured after 3 days; assay type: organism-based; details: in vivo, 72 h, dose 80-130 mg/kg, time 3 day
[30] = Acute toxicity in male BALB/c mouse assessed as animal death at 80 mg/kg, ip administered as single dose and measured after 3 days; assay type: organism-based; details: in vivo, 72 h, time 3 day
[31] = Acute toxicity in ip dosed male BALB/c mouse administered as single dose; assay type: organism-based; details: male, BALB/c, in vivo, read-out: LD50
[32] = system: Escherichia coli; test: […] activity against Escherichia coli ATCC 25922 infected in male BALB/c pulmonary infection model assessed as reduction in infiltration of pneumonia cells at 5 to 10 mg/kg, ip administered at 3 and 12 hrs post infection and measured 24 hrs post infection by H and E staining based analysis; assay type: functional, organism-based; details: dose 5-10 mg/kg, time 12-21 hrs
[33] = system: Staphylococcus aureus; test: Antibacterial activity against Staphylococcus aureus ATCC 25923 assessed as inhibition of bacterial growth incubated for 20 hrs in presence of MgCl2 by broth microdilution method (reference value: 16 microM); assay type: functional
[34] = system: Staphylococcus aureus; test: Antibacterial activity against Staphylococcus aureus ATCC 25923 assessed as inhibition of bacterial growth incubated for 20 hrs in presence of FeCl3 by broth microdilution method (reference value: 16 microM); assay type: functional
[35] = system: Escherichia coli; test: […] activity against Escherichia coli ATCC 25922 infected in ip dosed male BALB/c pulmonary infection model assessed as reduction in bacterial colonies administered at 3 and 12 hrs post infection and measured 24 hrs post infection; assay type: functional, organism-based; details: dose 5-10 mg/kg, time 12-21 hrs

Compound	selectivity ratio [1]	selectivity ratio [2]	selectivity ratio [3]	hemolysis at 1 h, 256 µM [4] [%]	Activity [5] [%]	Activity [6]	Activity [7]	Activity [8]	Activity [9]	Activity [10]	Activity [11]	Activity [12]	Activity [13] [%]	Activity [14]	Activity [15]	Activity [16]	Activity [17]	Activity [18]	Activity [19]	Activity [20]	other results
N=C(N)NCCC[C@H](NC(=O)[C@H](CCCNC(=N)N)NC(=O)[C@H](CCCNC(=N)N)NC(=O)[C@@H](N)CCCNC(=N)N)C(=O)N[C@@H](CCCCN)C(=O)N[C@@H](Cc1c[nH]c2ccccc12)C(=O)N[C@@H](Cc1c[nH]c2ccccc12)C(=O)N[C@@H](Cc1c[nH]c2ccccc12)C(=O)N[C@@H](Cc1c[nH]c2ccccc12)C(N)=O	0.25	0.5	0.5	< 10	100	Active	Dose-Dependent Effect	Dose-Dependent Effect	Active	Active	Dose-Dependent Effect	Tde	> 80	inactive	Active	Active	Active	Active	Active	Active	Ratio [21]: <=2; Activity [22]: inactive; Activity [23]: inactive; Activity [24]: inactive; fractional inhibitory concentration index (FICI) [25]: 0.5; fractional inhibitory concentration index (FICI) [26]: 0.5; Activity [27]: Toxic; Activity [28]: Toxic; Activity [29]: Toxic; Activity [30]: Non-Toxic; LD50 [31]: 105 mg/kg; Activity [32]: Active
N=C(N)NCCC[C@H](NC(=O)[C@@H](N)CCCNC(=N)N)C(=O)NCCCC[C@H](NC(=O)[C@H](CCCNC(=N)N)NC(=O)[C@@H](N)CCCNC(=N)N)C(=O)N[C@@H](Cc1c[nH]c2ccccc12)C(=O)N[C@@H](Cc1c[nH]c2ccccc12)C(=O)N[C@@H](Cc1c[nH]c2ccccc12)C(=O)N[C@@H](Cc1c[nH]c2ccccc12)C(N)=O (H-RRK([Arg-Arg])WWWW-NH2)	0.5	1	1	< 10	100	Active	Dose-Dependent Effect	Dose-Dependent Effect	Active	Active	Dose-Dependent Effect	Tde	> 80	inactive	Active	Active	Active	Active	Active	Active	MIC [33]: 8 µM; MIC [34]: 8 µM; Ratio [21]: <=2; Activity [22]: inactive; Activity [23]: inactive; Activity [24]: inactive; fractional inhibitory concentration index (FICI) [25]: 0.5; Activity [27]: Toxic; Activity [28]: Toxic; Activity [29]: Toxic; Activity [30]: Non-Toxic; LD50 [31]: 109 mg/kg; Activity [35]: Dose-Dependent Effect; Activity [32]: Active
POLYMYXIN B																					MIC [33]: 16 µM; MIC [34]: 16 µM; fractional inhibitory concentration index (FICI) [26]: 0.5; Activity [35]: Dose-Dependent Effect
